Calls of active or inactive are those of the source. No cut-off for these calls is given here.
Columns and labels:
[1] = target: Poly [ADP-ribose] polymerase 1 (Homo sapiens, UniProt P09874); test: Inhibition of human PARP1 using [3H]NAD as substrate after 1 min by microplate scintillation counting analysis
[2] = system: LoVo; test: cells; conditions: Homo sapiens, 120 h
[3] = Half life in rat liver microsomes; format: ADME
[4] = Cytotoxicity against BRCA2-deficient human Capan1 cells; format: functional, cell-based, CAPAN-1
[5] = target: PARP 1, 2 and 3 (Homo sapiens, UniProt P09874+Q9Y6F1+Q9UGN5); test: Inhibition of PARP in human LoVo cells assessed as inhibition of poly(ADP)-ribose polymerization for 30 mins by fluorescence assay; format: cell-based
[6] = Terminal eliminational half life in Sprague-Dawley rat at 5 mg/kg, iv by LC-MS/MS analysis; format: ADME, organism-based; conditions: Sprague-Dawley, in vivo, read-out: beta t1/2 (converted)
[7] = Volume of distribution at steady state in Sprague-Dawley rat at 5 mg/kg, iv by LC-MS/MS analysis; format: ADME, organism-based; conditions: in vivo, read-out: Vdss
[8] = Clearance in Sprague-Dawley rat at 5 mg/kg, iv by LC-MS/MS analysis; format: ADME, organism-based; conditions: in vivo
[9] = Cmax in Sprague-Dawley rat at 10 mg/kg, po by LC-MS/MS analysis; format: ADME, organism-based; set-up: dose 10 mg/kg, route oral; conditions: in vivo
[10] = AUC in Sprague-Dawley rat at 10 mg/kg, po by LC-MS/MS analysis; format: ADME, organism-based; conditions: Sprague-Dawley, in vivo
[11] = Oral bioavailability in Sprague-Dawley rat at 10 mg/kg by LC-MS/MS analysis; format: ADME, organism-based; conditions: Sprague-Dawley, in vivo
[12] = system: MX1; test: Antitumor activity against BRCA1 deficient human MX1 cells xenografted in athymic nu/nu mouse at 0.1 mg/kg, po qd administered for 21 days; format: functional, organism-based
[13] = system: MX1; test: Potentiation of carboplatin-induced tumor growth inhibition of BRCA1 deficient human MX1 cells xenografted in athymic nu/nu mouse at 0.33 mg/kg po and animals were treated with carboplatin at 35 mg/kg, ip on day 1; format: functional, organism-based
[14] = system: Mus musculus; test: Decrease in PAR level in athymic nu/nu mouse xenografted with human MX1 cells at 100 mg/kg, po measured after 24 hrs by ELISA; format: functional, organism-based
[15] = system: MX1; test: Potentiation of cisplatin-induced tumor growth inhibition of BRCA1 deficient human MX1 cells xenografted in po dosed athymic nu/nu mouse drug administered for 8 days and animals were treated with cisplatin at 6 mg/kg, ip on day 3; format: functional, organism-based
[16] = system: Mus musculus; test: Decrease in PAR level in athymic nu/nu mouse xenografted with human MX1 cells at 1 mg/kg, po administered as single dose measured after 2 ,8 and 24 hrs by ELISA; format: functional, organism-based
[17] = system: MX1; test: Antitumor activity against BRCA1 deficient human MX1 cells xenografted in athymic nu/nu mouse assessed as tumor growth inhibition at 0.165 mg/kg, po administered twice a day for 28 days; format: functional, organism-based
[18] = system: MX1; test: Antitumor activity against BRCA1 deficient human MX1 cells xenografted in athymic nu/nu mouse at 0.33 mg/kg, po qd administered for 28 days; format: functional, organism-based
[19] = system: MRC5; test: Cytotoxicity against human MRC5 cells; format: cell-based

Sequence of Poly [ADP-ribose] polymerase 1 (P09874 whole entry): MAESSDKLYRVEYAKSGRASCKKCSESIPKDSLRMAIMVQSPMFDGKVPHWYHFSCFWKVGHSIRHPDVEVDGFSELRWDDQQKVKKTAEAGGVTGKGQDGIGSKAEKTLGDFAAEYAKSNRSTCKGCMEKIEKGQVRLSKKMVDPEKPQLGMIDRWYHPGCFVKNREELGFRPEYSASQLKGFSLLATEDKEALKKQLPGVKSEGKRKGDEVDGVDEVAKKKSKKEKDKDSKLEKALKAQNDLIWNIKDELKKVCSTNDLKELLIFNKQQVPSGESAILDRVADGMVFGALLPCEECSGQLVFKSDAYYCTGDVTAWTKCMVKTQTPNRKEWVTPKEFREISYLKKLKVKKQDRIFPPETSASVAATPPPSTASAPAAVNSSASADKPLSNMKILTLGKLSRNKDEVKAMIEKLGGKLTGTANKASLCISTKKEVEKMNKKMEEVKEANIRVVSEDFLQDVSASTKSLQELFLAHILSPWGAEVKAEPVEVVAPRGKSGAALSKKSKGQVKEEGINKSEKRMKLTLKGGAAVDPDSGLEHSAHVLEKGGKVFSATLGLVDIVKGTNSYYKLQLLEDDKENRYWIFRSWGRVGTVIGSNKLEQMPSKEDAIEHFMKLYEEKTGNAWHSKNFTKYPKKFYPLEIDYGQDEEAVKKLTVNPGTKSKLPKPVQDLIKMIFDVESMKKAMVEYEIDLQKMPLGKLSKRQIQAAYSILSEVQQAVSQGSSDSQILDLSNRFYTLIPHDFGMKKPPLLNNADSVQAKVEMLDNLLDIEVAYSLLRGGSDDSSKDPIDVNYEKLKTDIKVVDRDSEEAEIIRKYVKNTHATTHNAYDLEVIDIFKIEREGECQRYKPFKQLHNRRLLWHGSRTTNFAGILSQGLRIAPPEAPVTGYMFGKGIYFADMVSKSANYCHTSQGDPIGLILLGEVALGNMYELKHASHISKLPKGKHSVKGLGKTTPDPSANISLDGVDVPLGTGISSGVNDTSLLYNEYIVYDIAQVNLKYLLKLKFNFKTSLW

SMILES	IC50 [1]	GI50 [2]	half-life [3]	EC50 [5]	EC50 ([4]; Homo sapiens, CAPAN-1)	also measured
CN(C)Cc1ccc(C2c3n[nH]c(=O)c4cccc(c34)NC2c2ccccc2)cc1 (stereo not given)	5.85 nM	112000 nM	0.1 h	–	–	–
O=c1[nH]nc2c3c(cccc13)NC(c1ccc(CN3CCCC3)cc1)C2c1ccc(F)cc1 (stereo not given)	2.02 nM	134000 nM	1.48 h	23 nM	454 nM	–
Cn1ncnc1[C@H]1c2n[nH]c(=O)c3cc(F)cc(c23)N[C@@H]1c1ccc(F)cc1	–	–	–	–	–	Activity [12]: inactive; Activity [13]: Active; inhibition [14]: inactive; Activity [15]: Dose-dependent effect; inhibition [16]: Active; Activity [17]: Active; Activity [18]: Active
CN(C)Cc1ccc(C2Nc3cc(F)cc4c(=O)[nH]nc(c34)C2c2ccc(F)cc2)cc1 (stereo not given)	2.63 nM	94000 nM	1.37 h	6.1 nM	134 nM	–
Cn1ccnc1C1c2n[nH]c(=O)c3cccc(c23)NC1c1ccccc1 (stereo not given)	2.35 nM	97000 nM	1.48 h	16.9 nM	360 nM	–
Cc1ccc(C2c3n[nH]c(=O)c4cccc(c34)NC2c2ccc(CN(C)C)cc2)cc1 (stereo not given)	1.95 nM	123000 nM	0.583 h	10.8 nM	514 nM	–
CN(C)Cc1cccc(C2c3n[nH]c(=O)c4cccc(c34)NC2c2ccccc2)c1 (stereo not given)	3.65 nM	204000 nM	0.183 h	–	–	–
Cn1ncnc1C1c2n[nH]c(=O)c3cccc(c23)NC1c1ccccc1 (stereo not given)	2.4 nM	> 400000 nM	6.9 h	149 nM	170 nM	–
CC(=O)Nc1ccc(C2Nc3cc(F)cc4c(=O)[nH]nc(c34)C2c2ncnn2C)cc1 (stereo not given)	2.08 nM	–	> 2 h	–	146 nM	–
Cn1ccnc1[C@@H]1c2n[nH]c(=O)c3cccc(c23)N[C@H]1c1ccc(F)cc1	136 nM	> 10000 nM	–	285 nM	6310 nM	–
C[C@]1(c2nc3c(C(N)=O)cccc3[nH]2)CCCN1 [VELIPARIB]	–	6200 nM	–	–	–	EC50 ([19]; mrc5): > 10000 nM; EC50 ([4]; capan-1): > 10000 nM
CN(C)Cc1ccc(C2Nc3cccc4c(=O)[nH]nc(c34)C2c2ccc(C(F)(F)F)cc2)cc1 (stereo not given)	6.29 nM	94000 nM	–	6.7 nM	818 nM	–
O=c1[nH]nc2c3c(cccc13)NC(c1ccc(CN3CCC3)cc1)C2c1ccc(F)cc1 (stereo not given)	3.09 nM	95000 nM	1.48 h	3.81 nM	276 nM	–
Cn1ccnc1C1c2n[nH]c(=O)c3cccc(c23)NC1c1ccc(C(F)(F)F)cc1 (stereo not given)	5.27 nM	192000 nM	–	27.2 nM	1100 nM	–

Further lines, with some results ahead:

IC50 [1]	GI50 [2]	half-life [3]	EC50 [5]	SMILES	EC50 ([4]; Homo sapiens, CAPAN-1)	also measured
2.6 nM	24000 nM	7.87 h	–	Cn1ncnc1C1c2n[nH]c(=O)c3cc(F)cc(c23)NC1c1ccccc1 (stereo not given)	9 nM	–
3.29 nM	46000 nM	0.0833 h	8.48 nM	CN(C)Cc1ccc(C2Nc3cc(F)cc4c(=O)[nH]nc(c34)C2c2ccccc2)cc1 (stereo not given)	146 nM	–
2.08 nM	75500 nM	> 2 h	19.7 nM	Cn1ccnc1C1c2n[nH]c(=O)c3cccc(c23)NC1c1ccc(F)cc1 (stereo not given)	418 nM	–
2.25 nM	261 nM	–	6.9 nM	Cn1ccnc1[C@H]1c2n[nH]c(=O)c3cccc(c23)N[C@@H]1c1ccc(F)cc1	305 nM	half-life [6]: 2.3 h; Vd [7]: 0.5 L/kg; clearance [8]: 4 mL/min/kg; Cmax [9]: 10500 ng/mL; AUC [10]: 36500 ng·h/mL; bioavailability [11]: 91%
1.46 nM	41 nM	–	5.1 nM	Cn1ncnc1[C@H]1c2n[nH]c(=O)c3cccc(c23)N[C@@H]1c1ccc(F)cc1	37 nM	half-life [6]: 2.44 h; Vd [7]: 0.39 L/kg; clearance [8]: 2 mL/min/kg; Cmax [9]: 7770 ng/mL; AUC [10]: 39900 ng·h/mL; bioavailability [11]: 47%
4.02 nM	90000 nM	0.133 h	9.47 nM	O=c1[nH]nc2c3c(cccc13)NC(c1ccc(CN3CCCC3)cc1)C2c1ccccc1 (stereo not given)	298 nM	–
2.48 nM	76000 nM	0.733 h	18.5 nM	CN(C)Cc1ccc(C2Nc3cccc4c(=O)[nH]nc(c34)C2c2ccc(F)cc2)cc1 (stereo not given)	1730 nM	–
–	19000 nM	5.98 h	–	Cn1ncnc1C1c2n[nH]c(=O)c3cc(F)cc(c23)NC1c1ccc(F)cc1 (stereo not given)	8 nM	–
2.29 nM	44000 nM	> 2 h	6.94 nM	Cn1ncnc1C1c2n[nH]c(=O)c3cccc(c23)NC1c1ccc(F)cc1 (stereo not given)	71 nM	–
3.63 nM	89000 nM	0.133 h	9.7 nM	O=c1[nH]nc2c3c(cccc13)NC(c1ccc(CN3CCC3)cc1)C2c1ccccc1 (stereo not given)	434 nM	–
1.1 nM	279 nM	–	6.3 nM	O=c1[nH]nc2c3c(cccc13)N[C@H](c1ccc(CN3CCC3)cc1)[C@H]2c1ccc(F)cc1	389 nM	half-life [6]: 2.29 h; Vd [7]: 4.5 L/kg; clearance [8]: 26 mL/min/kg; Cmax [9]: 126 ng/mL; AUC [10]: 914 ng·h/mL; bioavailability [11]: 14%
–	144 nM	–	–	CNCc1ccc(-c2[nH]c3cc(F)cc4c3c2CCNC4=O)cc1 [RUCAPARIB]	–	EC50 ([19]; Homo sapiens, MRC5): 8530 nM
2.36 nM	59000 nM	0.2 h	6 nM	CN(C)Cc1ccc(C2Nc3cccc4c(=O)[nH]nc(c34)C2c2ccccc2)cc1 (stereo not given)	387 nM	–
3.89 nM	63000 nM	> 2 h	18.6 nM	CN(C)Cc1ccc(C2Nc3cccc4c(=O)[nH]nc(c34)C2c2ccc(CN(C)C)cc2)cc1 (stereo not given)	979 nM	–
2.02 nM	54600 nM	0.317 h	40.6 nM	CN1CCN(Cc2ccc(C3Nc4cccc5c(=O)[nH]nc(c45)C3c3ccccc3)cc2)CC1 (stereo not given)	603 nM	–
2.14 nM	36300 nM	1.72 h	18.1 nM	Cn1ccnc1C1c2n[nH]c(=O)c3cc(F)cc(c23)NC1c1ccccc1 (stereo not given)	108 nM	–

Source: ChEMBL document CHEMBL3763037 (J Med Chem, 2016)
